{"source": "patent US20230139826A1", "about": "(NONO INC., priority 2020, published 2023)", "key": {"[1]": {"tested_on": "embolic middle cerebral artery occlusion (eMCAO)", "test": "Rat embolic middle cerebral artery occlusion model with alteplase reperfusion", "assay_type": "in vivo, Sprague-Dawley rats", "method": "To test this, male Sprague-Dawley rats (10-12 weeks old; 270-310 g; Charles River, Montreal, QC, Canada) were subjected to embolic middle cerebral artery occlusion (eMCAO), produced by the introduction of an autologous blood thrombus into the middle cerebral artery. Reperfusion was achieved by treatment with intravenous alteplase at a total dose of 5.4 mg/kg beginning at 90 minutes after ischemia onset. Alteplase was administered using the human injection protocol in which 10% of the total dose is given as a bolus, with the remainder 90% of the dose being given over a 60-minute infusion. […] This dose was chosen because in pilot studies, higher doses of alteplase (10× human dose) produced unacceptable mortality rates due to hemorrhagic conversions of strokes. Nerinetide was administered either 30 minutes prior to, or concurrently with, the start of the alteplase administration (FIG. 5A) at a dose of 7.6 mg/kg. […] Infarct volumes, hemispheric swelling and neurological scores were evaluated at 24 hours.\nMale Sprague-Dawley rats were subjected to eMCAO as already described. Nerinetide (7.6 mg/kg) or D-Tat-L-2B9c (7.6 mg/kg) were given as bolus injections at 60 minutes. Alteplase (5.4 mg/kg over 60 min) was also started at 60 min after eMCAO, concurrently with the active agent that inhibits PSD-95. Neurological scoring, infarct volume, and hemispheric swelling were assessed at 24 hours (FIG. 8A).\nThe studies were designed to have 80% power to detect a 40% absolute difference between control and treatment groups at p=0.05. Animal randomization, drug allocation and treatment drug preparation were performed by a research associate not directly involved with surgical or outcome assessment. Nerinetide and D-Tat-L-2B9c were freshly prepared at a concentration of 7.6 mg/mL in 500 uL aliquots. Alteplase was prepared from lyophilized drug and, like matching placebo, stored in identical glass tubes. Drugs were kept at 4° C. until 10 minutes prior to use. The surgeon and the investigators responsible for the surgery, stroke volume measurement, behavioural assessment and statistical analysis were blinded to treatment allocation."}, "plasmin": {"molecular_target": "plasmin (Homo sapiens, UniProt P00747)", "sequence (P00747 581-810 limits assumed, species assumed)": "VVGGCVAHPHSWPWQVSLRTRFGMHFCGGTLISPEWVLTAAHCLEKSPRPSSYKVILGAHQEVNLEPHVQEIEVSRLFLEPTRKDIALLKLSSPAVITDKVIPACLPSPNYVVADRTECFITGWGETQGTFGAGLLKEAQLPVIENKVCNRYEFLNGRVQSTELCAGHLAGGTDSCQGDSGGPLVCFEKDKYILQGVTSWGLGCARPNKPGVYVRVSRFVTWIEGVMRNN", "sequence (P00747 97-580 partner limits assumed, species assumed)": "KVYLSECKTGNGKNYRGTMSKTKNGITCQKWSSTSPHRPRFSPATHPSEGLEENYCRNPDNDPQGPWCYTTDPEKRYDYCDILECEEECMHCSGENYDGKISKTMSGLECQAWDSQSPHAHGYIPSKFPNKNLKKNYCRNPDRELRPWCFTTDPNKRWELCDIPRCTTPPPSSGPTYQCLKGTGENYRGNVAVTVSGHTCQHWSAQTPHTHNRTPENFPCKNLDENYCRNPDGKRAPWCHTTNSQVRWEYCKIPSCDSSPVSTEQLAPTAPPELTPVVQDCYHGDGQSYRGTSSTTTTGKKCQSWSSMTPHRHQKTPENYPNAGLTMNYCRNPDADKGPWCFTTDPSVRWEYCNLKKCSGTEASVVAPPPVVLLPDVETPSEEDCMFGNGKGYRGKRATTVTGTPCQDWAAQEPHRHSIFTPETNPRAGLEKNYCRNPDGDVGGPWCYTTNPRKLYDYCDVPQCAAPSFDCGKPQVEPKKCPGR", "method": "(A) LC/MS spectrum of nerinetide after incubation with plasmin in PBS. 10 uL aliquots of nerinetide (18 mg/mL) and plasmin (1 mg/mL) were incubated in 500 uL tubes of phosphate-buffered saline at 37 C for 5 min and the reaction stopped by cooling to −80 C until tested. […] (B, C) In-vitro effect of rt-PA on nerinetide content in rat (B) and human (C) plasma. Nerinetide was spiked into the plasma samples at t=0 at a concentration of 65 ug/ml, whereas alteplase (rt-PA) was administered as a 60 min infusion at the indicated concentration (D, E) In-vivo effect of the simultaneous administration of nerinetide and rt-PA on Cmax (D) and AUC (E) in the rat. The nerinetide bolus and alteplase (60 min infusion) were started simultaneously through two separate intravenous lines. Symbols represent mean±SD. […] […] (SEQ ID NO:3) (Full-length NA-1, undigested), […] […] (SEQ ID NO:8), […] […] (SEQ ID NO:10).\nDirect ELISA of the indicated biotinylated peptides to the PDZ2 domain of PSD-95. […] Symbols indicate the mean±SD of triplicate experiments. […] (B). […] E,F. Time course of nerinetide or D-TAT-L-2B9c content in rat plasma (E) and human plasma (F) during a challenge with tenecteplase (TNK; 37.5 ug/ml or 6.25 ug/ml, respectively). […] (repeated measures two-way ANOVA with a post hoc Sidak's multiple comparisons test, *P<0.01). Symbols are means±SD. […]"}, "[2]": {"test": "Nerinetide plasma levels in ESCAPE-NA1 subjects with and without alteplase", "assay_type": "in vivo, human", "method": "All patients had standard assessments of demographic characteristics, medical history, laboratory values and stroke severity (NIHSS score). In some patients, up to 6 consecutive blood samples were drawn following dosing for pharmacokinetic analysis of nerinetide levels.\nNerinetide plasma levels were obtained from 22 subjects in ESCPAE-NA1 and previously acquired data from 8 healthy volunteer subjects receiving a single dose of 2.6 mg/kg nerinetide intravenously. Time 0 is a preinfusion time-point. […] The bars represent standard error of the mean. […] In the presence of alteplase, nerinetide's maximum level was reduced by more than 50% with decline to background level by 60 minutes. […] (p=0.0119, mixed effects linear regression)."}, "[3]": {"details": "30-minute dose separation between nerinetide and alteplase"}}, "note": "Residues, ends and D or L forms follow the SMILES beside them.", "data": [{"smiles": "CC[C@H](C)[C@H](NC(=O)[C@H](CO)NC(=O)[C@H](CO)NC(=O)[C@H](CC(C)C)NC(=O)[C@H](CCCCN)NC(=O)[C@H](CCCN=C(N)N)NC(=O)[C@H](CCCN=C(N)N)NC(=O)[C@H](CCCN=C(N)N)NC(=O)[C@H](CCC(N)=O)NC(=O)[C@H](CCCN=C(N)N)NC(=O)[C@H](CCCN=C(N)N)NC(=O)[C@H](CCCCN)NC(=O)[C@H](CCCCN)NC(=O)[C@H](CCCN=C(N)N)NC(=O)CNC(=O)[C@@H](N)Cc1ccc(O)cc1)C(=O)N[C@@H](CCC(=O)O)C(=O)N[C@@H](CO)C(=O)N[C@@H](CC(=O)O)C(=O)N[C@H](C(=O)O)C(C)C", "note": "[Nerinetide] (H-YGRKKRRQRRRKLSSIESDV-OH)", "values": [{"measurement": "hemispheric swelling", "setting": "[1]; [3]", "result": "reducing hemispheric swelling"}, {"measurement": "neurological scores", "setting": "[1]; [3]", "result": "improving neurological scores"}, {"measurement": "reduction of infarction volume", "setting": "[1]; nerinetide alone 7.6 mg/kg, 60 minutes after eMCAO, 24 hours", "result": 59.2, "unit": "%"}, {"measurement": "infarction volume", "setting": "[1]; nerinetide alone 60 minutes after eMCAO (FIG. 5B), control 427±27", "result": "175±40", "unit": "mm^3"}, {"measurement": "infarction volume", "setting": "[1]; nerinetide alone 60 minutes after eMCAO, absence of alteplase (FIG. 8B), control 458±39", "result": "296±66", "unit": "mm^3"}, {"measurement": "infarct volume reduction", "setting": "[1]; nerinetide at 60 minutes followed by alteplase 30 minutes later", "result": 70, "unit": "%"}, {"measurement": "effect on infarction volume when given concurrently with alteplase", "setting": "[1]; peptide 7.6 mg/kg and alteplase 5.4 mg/kg both at 60 min after eMCAO", "result": "eliminated completely"}, {"measurement": "stability alone in phosphate buffered saline", "setting": "plasmin", "result": "stable"}, {"measurement": "time of decline of plasma level to background", "setting": "[2]; absence of alteplase", "result": "about 120 minutes"}, {"measurement": "time at which plasma peak levels were reached", "setting": "[2]; absence of alteplase, 2.6 mg/kg iv", "result": "ten"}, {"measurement": "AUC change", "setting": "[2]; presence of alteplase", "result": "similarly reduced"}, {"measurement": "reduction of maximum plasma level", "setting": "[2]; presence of alteplase", "result": "more than 50%"}, {"measurement": "time of decline of plasma level to background", "setting": "[2]; presence of alteplase", "result": 60, "unit": "min"}]}]}
